Measured values reported in ChEMBL document CHEMBL1128761, “Benzothiazolylthio carbapenems: potent anti-MRSA agents” (Bioorg Med Chem Lett, 1995).
≈ marks a conversion by molar mass, not a printed value.

Tests used:
Bacteria [1] = test: The gram-negative activity is derived from eleven strains selected from seven enteric genera; assay type: functional
Staphylococcus aureus [2] = test: Inhibitory activity against methicillin-resistant staphylococcus aureus(MRSA); assay type: functional
[3] = molecular target: T1, Dipeptidase 1 (Sus scrofa) (UniProt P22412); test: (§1) Susceptibility to DHP-I (swine kidney enzyme); assay type: tissue-based
T1 sequence (whole entry): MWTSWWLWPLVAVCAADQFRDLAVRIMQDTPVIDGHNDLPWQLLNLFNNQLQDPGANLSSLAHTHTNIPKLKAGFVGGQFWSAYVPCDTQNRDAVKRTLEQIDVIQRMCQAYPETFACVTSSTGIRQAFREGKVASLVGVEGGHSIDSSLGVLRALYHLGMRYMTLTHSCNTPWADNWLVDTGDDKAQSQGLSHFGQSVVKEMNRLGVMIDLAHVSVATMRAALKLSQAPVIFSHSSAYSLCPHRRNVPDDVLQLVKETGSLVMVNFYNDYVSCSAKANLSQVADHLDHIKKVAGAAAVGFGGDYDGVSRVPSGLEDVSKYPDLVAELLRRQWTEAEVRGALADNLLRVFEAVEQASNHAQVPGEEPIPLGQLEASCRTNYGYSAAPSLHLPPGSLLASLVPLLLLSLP

Staphylococcus aureus [4] = test: Inhibitory activity against methicillin-sensitive staphylococcus aureus(MSSA); assay type: functional
MecA = molecular target: T2, MecA (Staphylococcus aureus, UniProt Q7DHH4); test: Binding affinity towards Penicillin-binding protein 2a from homogeneous MRSA COL strain using [3H]-radioligand
T2 sequence (Q7DHH4 whole entry): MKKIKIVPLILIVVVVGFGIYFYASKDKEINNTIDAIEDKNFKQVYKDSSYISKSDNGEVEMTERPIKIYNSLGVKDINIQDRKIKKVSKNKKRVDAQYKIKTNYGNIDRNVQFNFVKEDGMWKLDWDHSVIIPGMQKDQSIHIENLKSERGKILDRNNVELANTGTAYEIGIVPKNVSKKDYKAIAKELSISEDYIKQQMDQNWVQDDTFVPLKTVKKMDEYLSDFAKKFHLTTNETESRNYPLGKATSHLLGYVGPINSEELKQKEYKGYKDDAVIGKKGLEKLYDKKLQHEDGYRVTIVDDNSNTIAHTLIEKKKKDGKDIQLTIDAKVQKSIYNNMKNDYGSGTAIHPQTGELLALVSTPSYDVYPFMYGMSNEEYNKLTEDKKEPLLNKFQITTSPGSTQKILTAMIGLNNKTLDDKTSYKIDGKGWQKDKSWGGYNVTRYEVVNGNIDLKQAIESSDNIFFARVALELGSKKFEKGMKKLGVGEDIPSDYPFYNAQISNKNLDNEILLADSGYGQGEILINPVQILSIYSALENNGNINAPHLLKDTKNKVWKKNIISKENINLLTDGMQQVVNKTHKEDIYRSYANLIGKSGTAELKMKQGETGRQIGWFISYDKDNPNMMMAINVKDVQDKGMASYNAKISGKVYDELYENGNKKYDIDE

Enterococcus [5] = test: Inhibitory activity against enterococcus evaluated by computational method; assay type: functional
Staphylococcus aureus [6] = test: Inhibitory activity against methicillin-resistant staphylococcus aureus(MRSA) evaluated manually; assay type: functional
Staphylococcus [7] = test: (§2) Inhibitory activity against methicillin-resistant coagulase negative staphylococci (MRCNS) evaluated manually; assay type: functional
Bacteria [8] = test: Inhibitory activity against gram negative bacteria evaluated manually; assay type: functional
Staphylococcus aureus [9] = test: Inhibitory activity against methicillin-sensitive staphylococcus aureus(MSSA) evaluated by computational method; assay type: functional
Staphylococcus aureus [10] = test: Inhibitory activity against methicillin-sensitive staphylococcus aureus(MSSA) evaluated manually; assay type: functional
Sus scrofa = organism: Sus scrofa; test: as §1; assay type: tissue-based
Enterococcus [11] = test: Inhibitory activity against enterococcus evaluated manually; assay type: functional
Staphylococcus [12] = test: Inhibitory activity against methicillin-resistant coagulase negative staphylococci (MRCNS) evaluated by computational method; assay type: functional
Staphylococcus aureus [13] = test: Inhibitory activity against methicillin-resistant staphylococcus aureus(MRSA) evaluated by computational method; assay type: functional
Staphylococcus sp. = test: as §2; assay type: functional
Staphylococcus [14] = test: Inhibitory activity against methicillin-resistant coagulase negative staphylococci (MRCNS)evaluated by computational method; assay type: functional
Staphylococcus [15] = test: Inhibitory activity against methicillin-resistant coagulase negative staphylococci (MRCNS)evaluated manually; assay type: functional
Staphylococcus aureus [16] = test: Inhibitory activity against methicillin-resistant staphylococcus aureus(MRSA)evaluated manually; assay type: functional
Staphylococcus aureus [17] = test: Inhibitory activity against methicillin-resistant staphylococcus aureus(MRSA)evaluated by computational method; assay type: functional

Row | SMILES | MIC (Bacteria [1]; Bacteria, read-out: MIC) [µg/mL] | MIC (Staphylococcus aureus [2]) [µg/mL] | Susceptibility [3] | MIC (Staphylococcus aureus [4]) [µg/mL] | IC50 (MecA) [µM] | MIC (Enterococcus [5]) [µg/mL] | also measured
1 | C[C@@H](O)[C@H]1C(=O)N2C(C(=O)[O-])=C(Sc3nc4cc(Cl)ccc4s3)[C@H](C)[C@H]12.[Na+] | 4.8 | 0.8 | 0.2 | 0.02 | 6.24 | 2.7 | 
2 | C[C@@H](O)[C@H]1C(=O)N2C(C(=O)O)=C(SCCNC=N)C[C@H]12 [IMIPENEM ANHYDROUS] | 0.6 (≈ 2 µM) |  |  |  |  | 1.1 (≈ 3.67 µM) | MIC (Staphylococcus aureus [6]): 64 µg/mL (≈ 214 µM); MIC (Staphylococcus [7]): > 64 µg/mL; MIC (Bacteria [8]): 0.4 µg/mL (≈ 1.34 µM); MIC (Staphylococcus aureus [9]): 0.02 µg/mL (≈ 0.0668 µM); MIC (Staphylococcus aureus [10]): 0.02 µg/mL (≈ 0.0668 µM); Susceptibility (Sus scrofa): 1; MIC (Enterococcus [11]): 1.3 µg/mL (≈ 4.34 µM); MIC (Staphylococcus [12]): 63.7 µg/mL (≈ 213 µM); MIC (Staphylococcus aureus [13]): 35.9 µg/mL (≈ 120 µM)
3 | C[C@@H](O)[C@H]1C(=O)N2C(C(=O)[O-])=C(Sc3nc(-c4ccccc4)cs3)[C@H](C)[C@H]12.[Na+] | 6.6 | 1.9 | 0.4 | 0.05 | 23.8 | 2.6 | 
4 | C[C@@H](O)[C@H]1C(=O)N2C(C(=O)[O-])=C(Sc3nc4c(C[n+]5ccn(C)c5)csc4s3)C[C@H]12 | 5.5 (≈ 11.9 µM) | 1 (≈ 2.16 µM) |  | 0.02 (≈ 0.0432 µM) | 0.649 | 2 (≈ 4.32 µM) | Susceptibility (Sus scrofa): 0.2
5 | C[C@@H](O)[C@H]1C(=O)N2C(C(=O)[O-])=C(Sc3nc4ccc(Cl)cc4s3)[C@H](C)[C@H]12.[Na+] | 17.6 | 2.3 |  | 0.1 | 2.08 | 4 | 
6 | C[C@@H](O)[C@H]1C(=O)N2C(C(=O)[O-])=C(Sc3nc4cc(CO)ccc4s3)[C@H](C)[C@H]12.[Na+] | 8 | 1 | 0.3 | 0.07 | 2.8 | 3.8 | 
7 | C[C@@H](O)[C@H]1C(=O)N2C(C(=O)[O-])=C(Sc3nc4ccc(N)cc4s3)[C@H](C)[C@H]12.[Na+] | 18.3 | 9 |  | 0.09 | 40.6 | 5.9 | 
8 | CCOc1ccc2nc(SC3=C(C(=O)[O-])N4C(=O)[C@H]([C@@H](C)O)[C@H]4[C@H]3C)sc2c1.[Na+] | 31.6 | 4 | 0.3 | 0.1 | 10.6 | 6 | 
9 | C[C@@H](O)[C@H]1C(=O)N2C(C(=O)[O-])=C(Sc3nc(-c4ccccc4)cs3)C[C@H]12.[Na+] | 14 | 11.3 | 3.6 | 0.03 |  | 2.1 | 
10 | C[C@@H](O)[C@H]1C(=O)N2C(C(=O)[O-])=C(Sc3nc4ccccc4s3)C[C@H]12.[Na+] | 3.7 | 1.9 | 1.7 | 0.07 | 8.06 | 1.7 | 
11 | COC(=O)c1csc2sc(SC3=C(C(=O)[O-])N4C(=O)[C@H]([C@@H](C)O)[C@H]4[C@H]3C)nc12.[Na+] | 21.9 | 2 | 0.3 | 0.04 | 2.59 | 4 | 
12 | C[C@@H](O)[C@H]1C(=O)N2C(C(=O)[O-])=C(Sc3cc4ccccc4s3)[C@H](C)[C@H]12.[Na+] | 9.8 | 3.9 | 0.4 | 0.04 | 41.5 | 5.7 | 
13 | C[C@@H](O)[C@H]1C(=O)N2C(C(=O)[O-])=C(Sc3ncc4ccccc4n3)[C@H](C)[C@H]12.[Na+] | 15 | 4 | 0.3 | 0.02 | 30.2 | 8 | 
14 | C[C@@H](O)[C@H]1C(=O)N2C(C(=O)[O-])=C(Sc3nc4cc(C[n+]5ccn(C)c5)ccc4s3)C[C@H]12 | 3.4 (≈ 7.45 µM) |  |  |  | 0.876 | 1.2 (≈ 2.63 µM) | MIC (Staphylococcus aureus [6]): 2 µg/mL (≈ 4.38 µM); MIC (Staphylococcus sp.): 4 µg/mL (≈ 8.76 µM); MIC (Bacteria [8]): 5.2 µg/mL (≈ 11.4 µM); MIC (Staphylococcus aureus [9]): 0.03 µg/mL (≈ 0.0657 µM); MIC (Staphylococcus aureus [10]): 0.02 µg/mL (≈ 0.0438 µM); Susceptibility (Sus scrofa): 0.2; MIC (Enterococcus [11]): 1 µg/mL (≈ 2.19 µM); MIC (Staphylococcus [12]): 0.8 µg/mL (≈ 1.75 µM); MIC (Staphylococcus aureus [13]): 1 µg/mL (≈ 2.19 µM)
15 | C[C@@H](O)[C@H]1C(=O)N2C(C(=O)[O-])=C(Sc3nc4ccccc4s3)[C@H](C)[C@H]12.[Na+] | 5.6 |  | 0.2 |  | 5.02 | 2.1 | MIC (Bacteria [1]): 9.7 µg/mL; MIC (Staphylococcus [14]): 1.6 µg/mL; MIC (Staphylococcus aureus [9]): 0.06 µg/mL; MIC (Staphylococcus [15]): 4 µg/mL; MIC (Staphylococcus aureus [10]): 0.02 µg/mL; MIC (Staphylococcus aureus [16]): 1 µg/mL; MIC (Enterococcus [11]): 4 µg/mL; MIC (Staphylococcus aureus [17]): 1.7 µg/mL
16 | C[C@@H](O)[C@H]1C(=O)N2C(C(=O)[O-])=C(Sc3nc4ccc(C#N)cc4s3)[C@H](C)[C@H]12.[Na+] | 8.8 | 0.9 | 0.1 | 0.04 | 3.78 | 4.5 | 
17 | C[C@@H](O)[C@H]1C(=O)N2C(C(=O)[O-])=C(Sc3nccs3)[C@H](C)[C@H]12.[Na+] | 2.5 | 18.2 | 0.4 | 0.17 | 33.6 | 7.1 | 
18 | C[C@@H](O)[C@H]1C(=O)N2C(C(=O)[O-])=C(Sc3nc4cc(C(F)(F)F)ccc4s3)[C@H](C)[C@H]12.[Na+] | 9.9 | 1.2 |  | 0.08 | 1.93 | 2.9 | 
19 | C[C@@H](O)[C@H]1C(=O)N2C(C(=O)O)=C(SCCN=CN)C[C@H]12 [IMIPENEM ANHYDROUS] |  |  |  |  | 428 |  | 
20 | C[C@@H](O)[C@H]1C(=O)N2C(C(=O)[O-])=C(Sc3nc4c(CO)csc4s3)[C@H](C)[C@H]12.[Na+] | 9.7 | 2 | 0.5 | 0.02 | 2.76 | 4 | 
21 | C[C@@H](O)[C@H]1C(=O)N2C(C(=O)[O-])=C(Sc3nc4cc(Cl)ccc4s3)C[C@H]12.[Na+] | 3.8 | 1.8 | 1.2 | 0.02 | 3.82 | 0.7 | 
22 | COC(=O)c1cc2sc(SC3=C(C(=O)[O-])N4C(=O)[C@H]([C@@H](C)O)[C@H]4[C@H]3C)nc2o1.[Na+] | 12.4 | 4 |  | 0.02 | 3.36 | 4 | 
23 | C[C@@H](O)[C@H]1C(=O)N2C(C(=O)[O-])=C(Sc3nc4ccc([N+](=O)[O-])cc4s3)[C@H](C)[C@H]12.[Na+] | 22.4 | 1.1 | 0.2 | 0.05 | 1.35 | 4.9 | 
24 | C[C@@H](O)[C@H]1C(=O)N2C(C(=O)[O-])=C(Sc3nc4ccccc4o3)[C@H](C)[C@H]12.[Na+] | 27.8 | 12.1 |  | 0.23 | 112 | 8.9 | 
25 | C[C@@H](O)[C@H]1C(=O)N2C(C(=O)[O-])=C(Sc3ccc4ccccc4n3)[C@H](C)[C@H]12.[Na+] | 10.1 | 6.3 |  | 0.05 | 71.4 | 4.9 | 
26 | C[C@@H](O)[C@H]1C(=O)N2C(C(=O)[O-])=C(Sc3ncc(-c4ccccc4)s3)[C@H](C)[C@H]12.[Na+] | 16 | 32 | 0.5 | 0.03 | 236 | 8 | 
